Measured values: patent US11008570B2, “3′ end caps for RNAi agents for use in RNA interference” (Novartis AG, priority 2013, dated 2021)

How the values were obtained:
[1] = test system: FVII (Factor VII), mF7-III target gene; assay: RNA interference against FVII by 3′-capped siRNAs (FIG. 2); set-up: species or system mouse; conditions: 19-mer blunt-ended mF7-III siRNA, A12S17
[2] = test system: human HAMP (Hepcidin) gene; assay: Hepcidin mRNA down regulation by HAMP siRNA-PAZ ligand conjugates in HuH-7 cells; type: cell-based; conditions: Hepcidin RNAi agent, format S402+ribitol+MOE clamp
[3] = Serum stability of siRNAs with 3′ end caps in human serum; conditions: 100% human serum, 37° C., up to 24 h; gel with SYBR gold
[4] = Serum stability of siRNAs with 3′ end caps in mouse serum; conditions: 100% mouse serum, 37° C., up to 24 h; compared to luciferase and dTsdT controls
[5] = test system: human SSB; assay: Human SSB RNAi agent, RNA interference in vitro; type: cell-based

For `C1C2CC3CC1CC(C2)C3` [Adamantane], which “ability of the RNAi agent to perform RNA interference (FIG. 2)” value (shortened to “ability of the RNAi agent”) [1] is on record?
Its value is “allow the RNAi agent to perform RNA interference”.

Which “Hepcidin KD at 5 nM in vitro (%)” value [2] does the source give for `c1ccc(-c2ccccc2)cc1` [BP (biphenyl), biphenyl] here?
The value was 68%.

Which “stability in human serum” value [3] does the source give for `c1ccc(-c2ccccc2)cc1` [Biphenyl] here?
The value was “increased stability”.

What about the “stability in mouse serum” value [4] of the same compound?
The value was “increased stability”.

What about the “ability of the RNAi agent” value [1] of the same compound?
Its value is “allow the RNAi agent to perform RNA interference”.

For `OCCOCCOCCO` [Triethylene glycol], which “ability of the RNAi agent” value [1] is on record?
Its value is “allow the RNAi agent to perform RNA interference”.

Which “RNA interference in vitro” value [5] does the source give for “hs_SSB_309_AS_18mer-C3-C6: "human SSB RNAi agent"; "AS: UuAcAUuAAAGUCUGU87-C3pC6", "S: cAAcAGAcuuuAAuGu55-C3pC6" (SEQ ID NO: 90, 91) (chain 1 UUACAUUAAAGUCUGUTG; chain 2 CAACAGACUUUAAUGUAA; C3pC6 3' end caps on both strands, further chemistry not given here)” here?
Its value is “effective at mediating RNA interference in vitro”.
